Measurements as given in patent US20220054595A1, “Formulation Including a Combination of beta-Endorphin and Adrenocorticotropic Hormone” (Adamis Pharmaceuticals Corporation, priority 2019, published 2022).

Tests used:
[1] = tested on: EAE induced in SJL mice by PLP139-151/CFA immunization; assay: EAE in SJL mice, late therapeutic treatment: clinical findings; format: in vivo, mouse
Protocol: (§1) The effect of administration of two dosages of ACTH and β-endorphin on severity and relapse in EAE was evaluated. EAE was induced in SJL mice by PLP139-151/CFA immunization on Day 0. Treatment was late therapeutic, starting on Day 20 after immunization for each mouse. Mice were observed through the end of the study, Day 42 after immunization. Four groups of 20 mice each received one of the following treatments: vehicle (a negative control); 10 mg/kg oral prednisolone daily (reference treatment); 32 μg ACTH+16 μg endorphin by subcutaneous injection, every 2nd day (low dose); or 64 μg ACTH+32 μg β-endorphin by subcutaneous injection, every 2nd day (high dose).
Mice were injected subcutaneously at four sites in the back with emulsion containing PLP139-151 (native sequence) from HOOKE KIT™ PLP139-151/CFA Emulsion, catalog number EK-0120 (Hooke Laboratories, Lawrence Mass.). Two sites of injection were in the upper back approximately 1 cm caudal of the neck line. The other two sites were in the lower back approximately 2 cm cranial of the base of the tail. The injection volume was 0.05 mL at each site. Even without treatment, most mice recover spontaneously after the first wave of disease. In the SJL model, EAE develops 10-15 days after immunization in 90-100% of immunized mice. The first wave of EAE lasts several days and most mice fully or almost fully recover from this first wave. After a disease-free period, which can last from one day to several months, most mice relapse. During the first 5-7 weeks after immunization, 50-100% of mice will develop a relapse. Each wave of paralysis results in body weight loss at onset, most of which is regained at recovery from the wave. The greatest weight loss is during the first wave of EAE. During the chronic phase of disease, the average EAE body weight is relatively stable, with normal slow increase with age. Since individual mice experience relapses at different times, only a few mice in each group are acutely sick at any given time after the first wave of EAE. Therefore, significant differences in relative body weight between groups are often not found after the first wave of disease in this model. In the vehicle treated group, disease developed as expected for this model. Five (5) mice were euthanized on Day 30 for analysis. Relapse occurred in 7 out of the 15 remaining mice, which were followed to Day 42, with typical course and severity of disease.
100 EAE induced mice were initially considered a single group and were scored daily starting on Day 9 after immunization. On Day 20, mice were assigned to the experimental groups in a balanced manner to achieve groups with similar times of EAE onset, similar maximum EAE score and similar scores at the time of enrollment into treatment (see Table 2). The remaining mice, which developed EAE last, or which developed unusual signs of EAE such as head tilting, were not assigned to any treatment group. […]
Treatment started on the day of group assignment (Day 20 after immunization). […] EAE score was determined daily by a person unaware of both treatment and of previous scores for each mouse. Weight was measured 3 times a week. […]

[2] = tested on: EAE induced in SJL mice by PLP139-151/CFA immunization; assay: EAE in SJL mice: histological and immunohistological analyses; format: in vivo, mouse
Protocol: as §1
Treatment started on the day of group assignment (Day 20 after immunization). This was the time of the expected end of the first wave of EAE and before relapses were expected to begin. Treatment continued through Day 41. EAE score was determined daily by a person unaware of both treatment and of previous scores for each mouse. Weight was measured 3 times a week. Five mice in each group were euthanized on day 30 and the fifteen remaining mice euthanized at the end of the study (Day 42). Histological and immunohistological analyses were performed on tissue collected from the euthanized mice.

[3] = tested on: acute epileptic extensor spasms (AEES) in Ts65Dn mouse; details: GABABR agonist-treated Ts65Dn mouse; cited from earlier work

Row | Compound | End score ± SD ([1]; EAE score (scale 0-5) at end of study, mice followed until Day 42) | Body weight change versus vehicle control (in words) ([1]; end of study) | MMS of relapse period ± SD (Days 25-42) ([1]; mean maximal EAE score (scale 0-5), mice followed until Day 42, all mice in the group) | Incidence of relapse ([1]; mice followed until Day 42, treatment Day 20-41, mice that relapsed as proportion of surviving mice that developed first wave of EAE) | End % body weight ± SD ([1]; relative body weight at end of study, mice followed until Day 42) | Demyelination (anti-MBP) ± SD ([2]; anti-myelin basic protein staining score 0-5) | GFAP ± SD (% of area) ([2]; gliosis, % of total spinal cord area) | lba1 ± SD (% of area) ([2]; microglial activation, % of total spinal cord area) | Demyelination, anti-myelin basic protein staining score versus vehicle (in words) ([2]; mouse, in vivo) | Gliosis (scarring), area of anti-GFAP staining versus vehicle (in words) ([2]; mouse, in vivo) | Inflammation and inflammatory infiltrates, number of inflammatory foci versus vehicle (in words) ([2]; mouse, in vivo) | Inflammatory foci/section ± SD ([2]; spinal cord histology of euthanized mice) | Reduction of AEES [3]
1 | C[C@]12C=CC(=O)C=C1CC[C@@H]1[C@@H]2[C@@H](O)C[C@@]2(C)[C@H]1CC[C@]2(O)C(=O)CO [Prednisolone, prednisolone] | 1.47 ± 1.04 | statistically significant loss of weight versus the vehicle control | 2.07 ± 1.10 | 33.3% | 88.6% ± 9.3% | 0.9 ± 0.6 | 13.3 ± 2.0 % of area | 4.0 ± 1.2 % of area | only at best a trend to reduction | a higher level of gliosis | only at best a trend to reduction | 3.8 ± 2.4 foci/section | –
2 | Rodent ACTH: murine ACTH, SEQ ID NO: 9, SYSMEHFRWGKPVGKKRRPVKVYPNVAENESAEAFPLEF (listed as Mus musculus) | – | – | – | – | – | – | – | – | – | – | – | – | can significantly reduce AEES
